Assay results as given in US4103011A, “Novel penicillin compounds and process for preparation thereof” (priority 1976, dated 1978).
Structures can show the parent of a compound that is named as a salt. Where two headings read alike, the source gives them in different places.

Tests used:
[1] = system: bacteria (systemic infection); test: In vivo efficacy against systemic infection, overall conclusions; parameters: species or system male mice (ddY); conditions: Table II
Method in brief: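 Mice given injections of compounds at various concentrations, dissolved in deionized water or in aqueous sodium carbonate (pH 8-9) depending on compound. Median effective dose (ED50) determined against systemic infection.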

in vivo = conditions: mouse
[2] = Urinary excretion in mice; assay type: in vivo, male mice (ddY); conditions: for a: amount in urine: 4 mice, total body weight 101.8 g
Experimental: The contents of the vials (No. A) obtained in Example 17 were dissolved in deionized water to form solutions of penicillin compound 1 in a concentration of 25 mg/ml. The solutions were administered in a dose of 25 mg/kg (im) to four male mice (ddY) having an average body weight of 25 g. After given periods of time, the urine was collected from the four mice, and the concentration of the penicillin compound 1 in the urine was determined.
Urine was collected by using a metabolism cage for 3, 6, and 24 hours after administration. The pooled urine was diluted with a 0.067M phosphate buffer (pH 7.0) before assay to 500 times for the 0-3 hour urine, 100 times for the 3-6 hour urine and 10 times for the 6-24 hour urine.
The levels of compound 1 were determined by the thin-layer cup-plate method using Escherichia coli Kp as an indicator microorganism and a standard calibration line was prepared in a 0.067M phosphate buffer (pH 7.0).

[3] = system: Pseudomonas aeruginosa No. 12; test: In vivo efficacy against systemic infection; parameters: species or system male mice (ddY); conditions: for ED50: NO.12, in Mus musculus
Method in brief: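 Male ddY mice (about 20 g) infected intraperitoneally with a Pseudomonas aeruginosa No. 12 suspension. Compounds in deionized water were given twice, about 5 minutes and 6 hours after infection. Effective dose calculated by the Behrens-Kaerber method.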

Plasma level in mice = assay type: in vivo, male mice (ddY)
Experimental: The contents of the vials (No. A) obtained in Example 17 were dissolved in deionized water to form solutions of compound 1 in a concentration of 100 mg/ml. The solutions were intramuscularly (im) administered to twenty four male mice (ddY) having an average body weight of 26 g at a dose of 25 mg/kg.
Blood was taken by cardiac puncture from four mice ech 0.25, 0.5, 1, 2, 3 and 4 hours after administration, and centrifuged individually to separate the plasma.
Drug levels were determined by the thin-layer cup-plate method using Escherichia coli Kp as an indicator organism. Plasma was appropriately (to more than 10 times) diluted with a 0.067 M phosphate buffer having a pH of 7.0. A standard calibration line was prepared in the same buffer.

[4] = system: Staphylococcus aureus 209P JC-1; test: In vitro antibacterial activity (MIC); assay type: cell-based; conditions: Staphylococcus aureus 209P JC-1; read-out: minimum inhibitory concentration (MIC)
Description: (§1) In vitro antibacterial activity against 20 strains of bacteria
(§2) The numerals in the table show minimum inhibitory concentrations (MIC)

[5] = system: Corynebacterium pyogenes C-21; test: In vitro antibacterial activity (MIC); assay type: cell-based; conditions: Rhodococcus (subgen. Prescottella) equi, C21, read-out: minimum inhibitory concentration (MIC)
Description: as §1, §2

[6] = system: Pseudomonas aeruginosa No.12; test: In vitro antibacterial activity (MIC); assay type: cell-based; conditions: Pseudomonas aeruginosa, NO.12, read-out: minimum inhibitory concentration (MIC)
Description: as §1, §2

[7] = system: Shigella flexneri 4a P-330; test: In vitro antibacterial activity (MIC); assay type: cell-based; conditions: 4AP330, read-out: minimum inhibitory concentration (MIC)
Description: as §1, §2

[8] = system: Staphylococcus aureus No. 50774; test: In vitro antibacterial activity (MIC); assay type: cell-based; conditions: Staphylococcus aureus No. 50774; read-out: minimum inhibitory concentration (MIC)
Description: as §1, §2

[9] = system: Streptococcus pyogenes 65A; test: In vitro antibacterial activity (MIC); assay type: cell-based; conditions: Streptococcus pyogenes 65A; read-out: minimum inhibitory concentration (MIC)
Description: as §1, §2

Proteus mirabilis P-2381 = test: In vitro antibacterial activity (MIC); assay type: cell-based; conditions: Proteus mirabilis, P2381, read-out: minimum inhibitory concentration (MIC)
Description: as §1, §2

Escherichia coli P-5101 [10] = test: In vitro antibacterial activity (MIC); assay type: cell-based; conditions: P5101; Escherichia coli P-5101; read-out: minimum inhibitory concentration (MIC)
Description: as §1, §2

Escherichia coli P-5101 [11] = test: In vivo efficacy against systemic infection; parameters: species or system male mice (ddY); conditions: P5101, in Mus musculus, 168 h, twice, about 5 minutes and 6 hours after infection, read-out: ED50 (median effective dose)
Method in brief: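 Male ddY mice of about 20g were infected intraperitoneally with E. coli P-5101 suspended in tryptosoy broth. Compounds dissolved in deionized water were given twice, about 5 minutes and 6 hours after infection. Effective dose was calculated by the Behrens-Kaerber method.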

[12] = system: Staphylococcus aureus No. 50774; test: In vivo efficacy against systemic infection; parameters: species or system male mice (ddY); conditions: NO.50774, in Mus musculus, 336 h, sc, twice, about 5 minutes and 6 hours after infection, read-out: ED50 (median effective dose)
Method in brief: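 Male ddY mice (~20 g) infected intravenously with 50 to 100 LD50 (about 5 × 10^8 cells/mouse) of S. aureus No. 50774 in saline. Compounds in water or aqueous sodium carbonate (pH 8-9) dosed twice, about 5 minutes and 6 hours post-infection; ED50 (mg/kg) by Behrens-Kaerber method.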

[13] = after parenteral administration

CC1(C)S[C@@H]2[C@H](NC(=O)[C@H](NC(=O)c3c[nH]c4nc(N5CCN(C=O)CC5)ncc4c3=O)c3ccc(O)cc3)C(=O)N2[C@H]1C(=O)O [Compound 1, D-α-[5,8-Dihydro-2-(4-formyl-1-piperazinyl)-5-oxopyrido[2,3-d]pyrimidine-6-carboxamido]-p-hydroxybenzyl-penicillin sodium salt]
antibacterial activity in vivo (in words) [1]: excellent antibacterial activity in vivo
LD50 at 168 h (in vivo; iv): 4520 mg/kg
selectivity ratio (in vivo; iv): 1100
LD50 at 168 h (in vivo; sc): > 6000 mg/kg
selectivity ratio (in vivo; sc): > 3000
a: amount in urine ([2]; 25 mg/kg, im, single dose, 0-3 hour): 0.718 mg
a: amount in urine ([2]; 25 mg/kg, im, single dose, 3-6 hour): 0.0480 mg
a: amount in urine ([2]; 25 mg/kg, im, single dose, 6-24 hour): 0.0483 mg
urinary level (in words) [2, 13]: higher than its MIC (μg/ml) values against various bacteria shown in Table I
dose excreted at 3 h ([2]; mouse, urine, im, 25 mg/kg, im, single dose, 0-3 hour, read-out: cr: cumulative urinary recovery): 28.2%
dose excreted at 3 h ([2]; mouse, urine, im, 25 mg/kg, im, single dose, 0-3 hour, read-out: r: urinary recovery): 28.2%
dose excreted at 6 h ([2]; mouse, urine, im, 25 mg/kg, im, single dose, 3-6 hour, read-out: r: urinary recovery): 1.89%
dose excreted at 24 h ([2]; mouse, urine, im, 25 mg/kg, im, single dose, 6-24 hour, read-out: r: urinary recovery): 1.9%
dose excreted at 6 h ([2]; mouse, urine, im, 25 mg/kg, im, single dose, column 3-6 hour, read-out: cr: cumulative urinary recovery): 30%
dose excreted at 24 h ([2]; mouse, urine, im, 25 mg/kg, im, single dose, column 6-24 hour, read-out: cr: cumulative urinary recovery): 31.9%
concentration at 3 h ([2]; mouse, urine, 25 mg/kg, im, single dose, 0-3 hour, read-out: c: urinary concentration): 187000 ng/mL
concentration at 6 h ([2]; mouse, urine, 25 mg/kg, im, single dose, 3-6 hour, read-out: c: urinary concentration): 21500 ng/mL
concentration at 24 h ([2]; mouse, urine, 25 mg/kg, im, single dose, 6-24 hour, read-out: c: urinary concentration): 7250 ng/mL
ED50 ([3]; iv, twice, about 5 minutes and 6 hours after infection, read-out: ED50 (median effective dose)): 4.1 mg/kg
ED50 ([3]; parenteral administration, compounds 1 and 2 together, read-out: ED50): 2 to 6 mg/kg
ED50 ([3]; sc, twice, about 5 minutes and 6 hours after infection, read-out: ED50 (median effective dose)): 2.1 mg/kg
antibacterial activity compared with compounds J and H (in words) ([3]; parenteral administration): far superior antibacterial activity
antibacterial activity relative to compounds B and C (times as high) ([3]; parenteral administration): 3 to 25 times
antibacterial activity relative to compounds D and E (times as high) ([3]; parenteral administration): 6 to 20 times
plasma level (in words) (Plasma level in mice; [13]): much the same concentration as the MIC
concentration at 0.25 h (Plasma level in mice; mouse, plasma, 25 mg/kg, im, single dose, 0.25 hour, read-out: Average plasma conc.): 27400 ng/mL
concentration at 0.5 h (Plasma level in mice; mouse, plasma, 25 mg/kg, im, single dose, 0.5 hour, read-out: Average plasma conc.): 21500 ng/mL
concentration at 1 h (Plasma level in mice; mouse, plasma, 25 mg/kg, im, single dose, 1 hour, read-out: Average plasma conc.): 15600 ng/mL
concentration at 2 h (Plasma level in mice; mouse, plasma, 25 mg/kg, im, single dose, 2 hour, read-out: Average plasma conc.): 9570 ng/mL
concentration at 3 h (Plasma level in mice; mouse, plasma, 25 mg/kg, im, single dose, 3 hour, read-out: Average plasma conc.): 4010 ng/mL
concentration at 4 h (Plasma level in mice; mouse, plasma, 25 mg/kg, im, single dose, 4 hour, read-out: Average plasma conc.): 2740 ng/mL
MIC [4]: 0.78 µg/mL
MIC [5]: 3.13 µg/mL
MIC [6]: 3.13 µg/mL
MIC [7]: 3.13 µg/mL
MIC [8]: 1.56 µg/mL
MIC [9]: 0.006 µg/mL
MIC (Proteus mirabilis P-2381): 3.13 µg/mL
MIC (Escherichia coli P-5101 [10]): 1.56 µg/mL
ED50 (Escherichia coli P-5101 [11]; iv): 2.9 mg/kg
ED50 (Escherichia coli P-5101 [11]; sc): 3.7 mg/kg
chemotherapeutic index relative to compounds B, D, E, F, G and J (times as high) (mice; Pseudomonas aeruginosa): 3 to 100 times
LD50 relative to compounds A to G (times as high) (mice; mice): 2 to 10 times
ED50 [12]: 2.1 mg/kg
